Test results as given in patent publication US20240293384A1, “METHODS AND COMPOSITIONS FOR TREATMENT OF COVID-19” (priority 2021, published 2024).

Experiments:
SARS-CoV-2 [1] = type: cell-based
Calu3 cells = assay: RNAseq of infected Calu3 cells, DEG reversal z-score analysis; type: cell-based, human; settings: overlapping genes with FDR<10%
SARS-CoV-2 [2] = type: cell-based, SARS-CoV-2 (Seattle strain)
tubulin network = assay: mRNA sequencing and IPA analysis of SARS-CoV-2-infected neurons; type: cell-based, human; settings: neurons infected with virus for 24 hours, treated vs vehicle (DMSO)

## O=[N+]([O-])c1ccc(Sc2nnc(COc3ccccc3)n2-c2ccccc2)c2ncccc12 [MIND4]
SARS-CoV-2 [1]
  viral RNA levels (qPCR, Spike RNA): dramatic reduction in viral RNA levels
Calu3 cells
  restoration of gene expression of infected cells to uninfected levels (log 2 fold change z-scores): significant restoration back to uninfected state

## O=[N+]([O-])c1ccc(Sc2nnc(COc3ccccc3)n2-c2ccccc2)nc1 [MIND4-17, 5-Nitro-2-{[5-(phenoxymethyl)-4-phenyl-4H-1,2,4-triazol-3-yl]thio}pyridine]
SARS-CoV-2 [2]
  SARS-CoV-2 levels determined by qPCR for Spike mRNA: dramatic reduction in Spike transcripts
Tubulin network
  expression of tubulins in mRNAseq (IPA Coronavirus Replication Pathway): downregulated
